Source: US10221129B2, “Inhibitors of human immunodeficiency virus replication” (ViiV HEALTHCARE UK (NO.5) LIMITED, priority 2015, dated 2019)
pEC50: −log10 of the molar value.

Columns and labels:
Format in all cases: cell-based
uninfected MT2 cells = experiment: Compound cytotoxicity, XTT-based colorimetric assay; settings: day 4, XTT
Procedure, shortened: (§1)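 Run under the antiviral-assay protocol but without virus. Viability was read on day 4 and CC50 values were derived from the readout.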

[1] = tested on: recombinant NL4-3 virus (nef section replaced with Renilla luciferase gene) in MT-2 cells; experiment: HIV cell culture assay (antiviral activity, luciferase readout)
Procedure, shortened: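 Serial compound dilutions tested in MT-2 cells infected for 4-5 days with 293T-derived NL4-3 virus carrying Renilla luciferase in place of part of nef. Antiviral activity quantified as luciferase activity, read with a live-cell substrate.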

[2] = Compound cytotoxicity, XTT-based colorimetric assay; settings: human, uninfected MT2 cells, day 4, XTT
Procedure, shortened: as §1

[3] = MT-2 cells infected for 4-5 days with recombinant NL4-3 Renilla luciferase virus
[4] = Renilla, NL43, MT-2 cells infected for 4-5 days with recombinant NL4-3 Renilla luciferase virus

Structure (SMILES)	CC50 (uninfected MT2 cells)	pEC50 [1, 3]	pEC50 [1, 4]	CC50 at 4 days [2]	CC50 at 4 day [2]
CN(C)C(=O)C1Cc2cccnc2N1S(=O)(=O)NC(=O)N[C@@H](Cc1cc(F)cc(F)c1)C(=O)N(C)c1ccc2scnc2c1 (single isomer, unassigned) [BB-29]	> 100000 nM	5.61			
CN(C(=O)[C@H](Cc1cc(F)cc(F)c1)NC(=O)NS(=O)(=O)N1CCCC1c1ccccn1)c1ccc2scnc2c1 (single isomer, unassigned) [VN-2]	> 100000 nM	6.21			
CN(C(=O)[C@H](Cc1cc(F)cc(F)c1)NC(=O)NS(=O)(=O)N1CCCC1c1ccccc1)c1ccc2scnc2c1 (single isomer, unassigned) [VN-4]	57500 nM	6.72			
CC1Cc2cccnc2N1S(=O)(=O)NC(=O)N[C@@H](Cc1cc(F)cc(F)c1)C(=O)N(C)c1ccc2scnc2c1 (single isomer, unassigned) [VN-7]	> 1000 nM	7.30			
CC1CCc2ccccc2N1S(=O)(=O)NC(=O)N[C@@H](Cc1cc(F)cc(F)c1)C(=O)N(C)c1ccc2scnc2c1 (single isomer, unassigned) [VN-10]	> 33300 nM		7.00		
COc1ccc(N(C)C(=O)[C@H](Cc2ccccc2)NC(=O)NS(=O)(=O)NCc2cc(C)on2)cc1 [JB-59]			5.73	> 100000 nM	
COc1ccc(N(C)C(=O)[C@H](Cc2ccccc2)NC(=O)NS(=O)(=O)NC(C)c2cnn(C)c2C)cc1 (some centres unmarked) [JB-60]			6.57	> 100000 nM	
COc1ccc(N(C)C(=O)[C@H](Cc2ccccc2)NC(=O)NS(=O)(=O)Nc2cccc(C(N)=O)c2)cc1 [JB-61]			5.31	> 100000 nM	
COC(=O)Nc1ccc(NS(=O)(=O)NC(=O)N[C@@H](Cc2ccccc2)C(=O)N(C)c2ccc(OC)cc2)cc1 [JB-62]			6.54	> 100000 nM	
COc1ccc(N(C)C(=O)[C@H](Cc2ccccc2)NC(=O)NS(=O)(=O)NCc2nccn2C)cc1 [JB-63]			5.19	> 100000 nM	
COc1ccc(N(C)C(=O)[C@H](Cc2ccccc2)NC(=O)NS(=O)(=O)NC(C)c2csc(C)n2)cc1 (some centres unmarked) [JB-64]			6.17	> 100000 nM	
COc1ccc(N(C)C(=O)[C@H](Cc2ccccc2)NC(=O)NS(=O)(=O)NC(C)c2cccnc2)cc1 (some centres unmarked) [JB-65]			6.21	> 100000 nM	
COc1ccc(N(C)C(=O)[C@H](Cc2ccccc2)NC(=O)NS(=O)(=O)N(C)Cc2n[nH]c(=O)[nH]2)cc1 [JB-69]			5.43	> 100000 nM	
CCOc1ccc(N(CC)C(=O)[C@H](Cc2ccccc2)NC(=O)NS(=O)(=O)N2CCc3cc(C)ccc32)cc1 [JB-70]			7.00	> 33300 nM	
CCOc1ccc(N(CC)C(=O)[C@H](Cc2ccccc2)NC(=O)NS(=O)(=O)N2CCc3cccnc32)cc1 [JB-71]			6.89	> 33300 nM	
CCOc1ccc(N(CC)C(=O)[C@H](Cc2ccccc2)NC(=O)NS(=O)(=O)N2CCc3c(Cl)cccc32)cc1 [JB-72]			6.74	> 33300 nM	
CCOc1ccc(N(CC)C(=O)[C@H](Cc2ccccc2)NC(=O)NS(=O)(=O)N2CCc3ccccc32)cc1 [JB-73]			7.30	> 33300 nM	
CCOc1ccc(N(CC)C(=O)[C@H](Cc2ccccc2)NC(=O)NS(=O)(=O)N2CCc3cc(OC)cc(C)c32)cc1 [JB-74]			5.95	> 100000 nM	
CCOc1ccc(N(CC)C(=O)[C@H](Cc2ccccc2)NC(=O)NS(=O)(=O)n2ccc3ccccc32)cc1 [JB-75]			7.15	> 33300 nM	
CCOc1ccc(N(CC)C(=O)[C@H](Cc2ccccc2)NC(=O)NS(=O)(=O)N2CCc3cc(Cl)cc(Cl)c32)cc1 [JB-76]			5.06	> 33300 nM	
COc1ccc(N(C)C(=O)[C@H](Cc2ccccc2)NC(=O)NS(=O)(=O)n2ccc3cccnc32)cc1 [JB-77]			6.35	> 100000 nM	
COc1ccc(N(C)C(=O)[C@H](Cc2ccccc2)NC(=O)NS(=O)(=O)n2ccc3c(F)c(F)c(F)c(F)c32)cc1 [JB-78]			6.43	> 33300 nM	
COc1ccc(N(C)C(=O)[C@H](Cc2ccccc2)NC(=O)NS(=O)(=O)N2Cc3ccccc3S2(=O)=O)cc1 [JB-79]			5.06	> 100000 nM	
COc1ccc(N(C)C(=O)[C@H](Cc2ccccc2)NC(=O)NS(=O)(=O)n2ccc3cnccc32)cc1 [JB-80]			6.44		> 100000 nM
CCOc1ccc(NS(=O)(=O)NC(=O)N[C@@H](Cc2ccccc2)C(=O)N(C)c2ccc(OC)cc2)cc1 [JB-81]			6.59	> 100000 nM	
CN(C(=O)[C@H](Cc1cc(F)cc(F)c1)NC(=O)NS(=O)(=O)N1CCCc2ccccc21)c1ccc2scnc2c1 [VN-5]			7.40	95900 nM	
CN(C(=O)[C@H](Cc1cc(F)cc(F)c1)NC(=O)NS(=O)(=O)n1ccc2cccnc21)c1ccc2scnc2c1 [VN-8]			7.30	> 100000 nM	
CN(C(=O)[C@H](Cc1cc(F)cc(F)c1)NC(=O)NS(=O)(=O)N1CCCc2cccnc21)c1ccc2scnc2c1 [VN-9]			8.00	> 100000 nM	

Structure (SMILES)	CC50 (uninfected MT2 cells)	pEC50 [1, 3]	pEC50 [1, 4]	CC50 at 4 days [2]	CC50 at 4 day [2]
Cc1ccc2c(n1)N(S(=O)(=O)NC(=O)N[C@@H](Cc1cc(F)cc(F)c1)C(=O)N(C)c1ccc3scnc3c1)CCC2 [VN-12]			8.00	> 50000 nM	
CN(C(=O)[C@H](Cc1cc(F)cc(F)c1)NC(=O)NS(=O)(=O)N(C)C)c1ccc2scnc2c1 [VN-16]			7.52	> 100000 nM	
CN(C(=O)[C@H](Cc1cc(F)cc(F)c1)NC(=O)NS(=O)(=O)N1CCc2ccnnc21)c1ccc2scnc2c1 [VN-17]			7.15	> 100000 nM	
CCN(CC)S(=O)(=O)NC(=O)N[C@@H](Cc1cc(F)cc(F)c1)C(=O)N(C)c1ccc2scnc2c1 [VN-21]			7.70	> 33300 nM	
CN(C(=O)[C@H](Cc1cc(F)cc(F)c1)NC(=O)NS(=O)(=O)N1CCCC1)c1ccc2scnc2c1 [VN-22]			7.30	> 100000 nM	
CN(C(=O)[C@H](Cc1cc(F)cc(F)c1)NC(=O)NS(=O)(=O)N1CCOCC1)c1ccc2scnc2c1 [VN-23]			6.77	> 100000 nM	
CN(C(=O)[C@H](Cc1cc(F)cc(F)c1)NC(=O)NS(=O)(=O)N1CCCCC1)c1ccc2scnc2c1 [VN-24]			7.05	> 100000 nM	
CN(C(=O)[C@H](Cc1cc(F)cc(F)c1)NC(=O)NS(N)(=O)=O)c1ccc2scnc2c1 [VN-25]			6.82	79600 nM	
CN(C(=O)[C@H](Cc1cc(F)cc(F)c1)NC(=O)NS(=O)(=O)N1CC[C@H](O)C1)c1ccc2scnc2c1 [VN-26]			6.96	20000 nM	
CN(C(=O)[C@H](Cc1cc(F)cc(F)c1)NC(=O)NS(=O)(=O)N1CC[C@@H](O)C1)c1ccc2scnc2c1 [VN-27]			7.05	> 100000 nM	
CN(C(=O)[C@H](Cc1cc(F)cc(F)c1)NC(=O)N1CCN(C)S1(=O)=O)c1ccc2scnc2c1 [VN-28]			6.60	> 100000 nM	
CN(C(=O)[C@H](Cc1cc(F)cc(F)c1)NC(=O)NS(=O)(=O)N1CCc2cccnc21)c1ccc2scnc2c1 [ZY-1]			8.00	> 100000 nM	
CN(C(=O)[C@H](Cc1ccccc1)NC(=O)NS(=O)(=O)N1CCc2cccnc21)c1ccc2scnc2c1 [ZY-2]			7.30	> 53000 nM	
CN(C(=O)[C@H](Cc1cc(F)cc(F)c1)NC(=O)NS(=O)(=O)N1CCc2ccccc21)c1ccc2scnc2c1 [ZY-8]			7.70	88000 nM	
CCN(c1ccccc1)S(=O)(=O)NC(=O)N[C@@H](Cc1cc(F)cc(F)c1)C(=O)N(C)c1ccc2scnc2c1 [ZY-9]			6.74	> 100000 nM	
Cc1ccc(NS(=O)(=O)NC(=O)N[C@@H](Cc2cc(F)cc(F)c2)C(=O)N(C)c2ccc3scnc3c2)cc1 [ZY-10]			7.30	> 100000 nM	
CN(C(=O)[C@H](Cc1cc(F)cc(F)c1)NC(=O)NS(=O)(=O)Nc1ccc(C(C)(C)C)cc1)c1ccc2scnc2c1 [ZY-11]			7.10	66900 nM	
CN(C(=O)[C@H](Cc1cc(F)cc(F)c1)NC(=O)NS(=O)(=O)N1CCc2cc(F)ccc21)c1ccc2scnc2c1 [ZY-12]			6.96	> 100000 nM	
CN(C(=O)[C@H](Cc1cc(F)cc(F)c1)NC(=O)NS(=O)(=O)N1CCc2cccc(F)c21)c1ccc2scnc2c1 [ZY-15]			7.52	> 33300 nM	
CN(C(=O)[C@H](Cc1cc(F)cc(F)c1)NC(=O)NS(=O)(=O)n1ccc2nccnc21)c1ccc2scnc2c1 [ZY-18]			6.82	> 100000 nM	
CN(C(=O)[C@H](Cc1cc(F)cc(F)c1)NC(=O)NS(=O)(=O)n1ncc2c(Cl)cccc21)c1ccc2scnc2c1 [ZY-19]			6.44	> 33300 nM	
CN(C(=O)[C@H](Cc1cc(F)cc(F)c1)NC(=O)NS(=O)(=O)n1ncc2cc(F)ccc21)c1ccc2scnc2c1 [ZY-20]			5.38	> 100000 nM	
CN(C(=O)[C@H](Cc1cc(F)cc(F)c1)NC(=O)NS(=O)(=O)N1CCc2cc(Br)cnc21)c1ccc2scnc2c1 [ZY-21]			6.31	> 100000 nM	
CN(C(=O)[C@H](Cc1cc(F)cc(F)c1)NC(=O)NS(=O)(=O)N1CCc2nccnc21)c1ccc2scnc2c1 [ZY-22]			6.28	> 100000 nM	
Cc1nc2cc(N(C)C(=O)[C@H](Cc3cc(F)cc(F)c3)NC(=O)NS(=O)(=O)N3CCc4cccnc43)ccc2s1 [ZY-23]			7.10	> 100000 nM	
CN(C(=O)[C@H](Cc1cc(F)cc(F)c1)NC(=O)NS(=O)(=O)N1CCc2cccnc21)c1ccc2c(c1)OCCO2 [ZY-24]			7.22	53400 nM	
CN(C(=O)[C@H](Cc1cc(F)cc(F)c1)NC(=O)NS(=O)(=O)N1CCc2cccnc21)c1ccc(Cl)cc1 [ZY-25]			7.52	97100 nM	
